From paper PMC4643811, “Structural basis of Lewis^b antigen binding by the Helicobacter pylori adhesin BabA” (Science Advances, 2015)
Like-named read-outs stand apart in the source and are kept apart here.

Columns and labels:
[1] = molecular target: BabA (extracellular domain, H. pylori J99) (Helicobacter pylori, UniProt Q9ZKV2, N226A); conditions: pH 7.4, 25°C; protein 0.25 mM, glycan 10 mM
[2] = molecular target: T1, BabA (extracellular domain, H. pylori J99) (Helicobacter pylori, UniProt Q9ZKV2); assay: isothermal titration calorimetry; assay type: binding
T1 construct: N-terminal extracellular domain, amino acids 10-527 of mature BabA; three C-terminal tags (6xLys-c-Myc-6xHis) kept; periplasmic expression in E. coli XL10 Gold; beta-barrel membrane domain absent
T1 sequence (Q9ZKV2 entry or part of it): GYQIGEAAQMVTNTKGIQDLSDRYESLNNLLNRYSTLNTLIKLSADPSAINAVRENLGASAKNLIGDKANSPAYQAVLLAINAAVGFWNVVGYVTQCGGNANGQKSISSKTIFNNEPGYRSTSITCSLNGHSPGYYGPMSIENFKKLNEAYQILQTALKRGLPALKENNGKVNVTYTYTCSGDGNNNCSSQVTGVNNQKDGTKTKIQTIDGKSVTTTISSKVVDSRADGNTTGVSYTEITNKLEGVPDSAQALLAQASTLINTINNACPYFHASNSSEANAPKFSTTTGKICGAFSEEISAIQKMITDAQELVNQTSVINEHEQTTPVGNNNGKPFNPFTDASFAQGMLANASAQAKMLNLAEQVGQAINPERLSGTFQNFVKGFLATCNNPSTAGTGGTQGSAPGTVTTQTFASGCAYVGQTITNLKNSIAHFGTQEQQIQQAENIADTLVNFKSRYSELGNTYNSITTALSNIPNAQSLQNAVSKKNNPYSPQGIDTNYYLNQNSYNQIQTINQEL

Chain of BabA (extracellular domain, H. pylori J99) (Helicobacter pylori, UniProt Q9ZKV2, N226A) (Q9ZKV2 30-547 N226A): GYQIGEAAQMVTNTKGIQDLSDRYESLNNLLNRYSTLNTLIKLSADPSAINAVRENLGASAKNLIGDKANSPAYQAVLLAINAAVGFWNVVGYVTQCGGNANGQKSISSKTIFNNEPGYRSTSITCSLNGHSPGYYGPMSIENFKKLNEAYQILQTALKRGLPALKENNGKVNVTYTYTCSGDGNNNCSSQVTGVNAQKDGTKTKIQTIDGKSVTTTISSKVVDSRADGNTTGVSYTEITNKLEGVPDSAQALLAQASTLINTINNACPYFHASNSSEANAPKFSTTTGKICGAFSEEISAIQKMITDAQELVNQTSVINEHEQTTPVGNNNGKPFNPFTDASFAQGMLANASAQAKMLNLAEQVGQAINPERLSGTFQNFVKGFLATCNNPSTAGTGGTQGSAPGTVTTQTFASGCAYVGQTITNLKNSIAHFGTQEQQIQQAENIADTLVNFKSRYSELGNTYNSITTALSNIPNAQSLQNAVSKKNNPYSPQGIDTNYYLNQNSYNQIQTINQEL

Compound | Kd [1] [µM] | Kd ([2]; pH 7.4, 20 mM tris-Cl, 300 mM NaCl, 25°C, single site) [µM] | Kd ([2]; pH 7.4, 25°C, protein 0.25 mM, glycan 10 mM, read-out: KD) [µM]
CC(=O)N[C@H]1[C@H](O[C@H]2[C@@H](O)[C@@H](CO)O[C@@H](O[C@H]3[C@H](O)[C@@H](O)C(O)O[C@@H]3CO)[C@@H]2O)O[C@H](CO)[C@@H](O[C@@H]2O[C@@H](C)[C@@H](O)[C@@H](O)[C@@H]2O)[C@@H]1O[C@@H]1O[C@H](CO)[C@H](O)[C@H](O)[C@H]1O[C@@H]1O[C@@H](C)[C@@H](O)[C@@H](O)[C@@H]1O (stereo partly drawn) [Le^b] | ~582 | ~252 | 
H-1 antigen |  |  | ~617
